From the NIST ThermoML archive (doi:10.1021/je049671t)

Assay: xn = mol fraction of the nth substance listed
Conditions: Liquid, Vibrating tube method

CC(C)C [2-methylpropane] + CCC
Conditions	mass density [kg/m3]
300 K, 4958.9 kPa, x2 = 0.499	533.34
300 K, 4994.5 kPa, x2 = 0.75	518.46
300 K, 5016.4 kPa, x2 = 0.25	547.38
300 K, 5458.6 kPa, x2 = 0.499	534.46
300 K, 5458.9 kPa, x2 = 0.75	519.57
300 K, 5511.8 kPa, x2 = 0.25	548.38
300 K, 5960.9 kPa, x2 = 0.75	520.74
300 K, 5975.7 kPa, x2 = 0.499	535.56
300 K, 6025.1 kPa, x2 = 0.25	549.47
300 K, 6473 kPa, x2 = 0.75	521.92
300 K, 6516 kPa, x2 = 0.25	550.41
300 K, 6517.3 kPa, x2 = 0.499	536.72
300 K, 6954.6 kPa, x2 = 0.75	522.99
300 K, 6957 kPa, x2 = 0.25	551.23
300 K, 6984.7 kPa, x2 = 0.499	537.69
320 K, 1020.5 kPa, x2 = 0.25	509.69
320 K, 1325.3 kPa, x2 = 0.75	475.52
320 K, 1461.2 kPa, x2 = 0.499	494.61
320 K, 1500 kPa, x2 = 0.25	511.28
320 K, 1505.3 kPa, x2 = 0.75	476.31
320 K, 2021.1 kPa, x2 = 0.75	478.51
320 K, 2023.3 kPa, x2 = 0.25	512.94
320 K, 2041.5 kPa, x2 = 0.499	496.75
320 K, 2488.7 kPa, x2 = 0.499	498.31
320 K, 2517.7 kPa, x2 = 0.75	480.54
320 K, 2522.2 kPa, x2 = 0.25	514.49
320 K, 3007.6 kPa, x2 = 0.25	515.95
320 K, 3023.9 kPa, x2 = 0.499	500.12
320 K, 3025.6 kPa, x2 = 0.75	482.53
320 K, 3506.4 kPa, x2 = 0.75	484.35
320 K, 3508.1 kPa, x2 = 0.25	517.4
320 K, 3550 kPa, x2 = 0.499	501.84
320 K, 3994.2 kPa, x2 = 0.75	486.12
320 K, 4022.9 kPa, x2 = 0.25	518.87
320 K, 4037.4 kPa, x2 = 0.499	503.38
320 K, 4507.7 kPa, x2 = 0.75	487.92
320 K, 4522.1 kPa, x2 = 0.25	520.26
320 K, 4530.4 kPa, x2 = 0.499	504.9
320 K, 4954.2 kPa, x2 = 0.499	506.17
320 K, 4968 kPa, x2 = 0.75	489.5
320 K, 4990.1 kPa, x2 = 0.25	521.53
320 K, 5517.3 kPa, x2 = 0.25	522.93
320 K, 5527.2 kPa, x2 = 0.75	491.33
320 K, 5545.8 kPa, x2 = 0.499	507.9
320 K, 5997.3 kPa, x2 = 0.499	509.24
320 K, 6001.8 kPa, x2 = 0.25	524.19
320 K, 6003.6 kPa, x2 = 0.75	492.85
320 K, 6479.8 kPa, x2 = 0.25	525.39
320 K, 6495 kPa, x2 = 0.75	494.38
320 K, 6524.9 kPa, x2 = 0.499	510.74
320 K, 6930.3 kPa, x2 = 0.499	511.85
320 K, 6964.1 kPa, x2 = 0.25	526.6
320 K, 7044.7 kPa, x2 = 0.75	496.03
340 K, 1514.2 kPa, x2 = 0.25	479.11
340 K, 2002.6 kPa, x2 = 0.499	459.37
340 K, 2028 kPa, x2 = 0.25	481.6
340 K, 2456 kPa, x2 = 0.499	461.99
340 K, 2489.8 kPa, x2 = 0.75	441.74
340 K, 2523.8 kPa, x2 = 0.25	483.92
340 K, 2981.6 kPa, x2 = 0.499	464.85
340 K, 3027.2 kPa, x2 = 0.25	486.13
340 K, 3027.4 kPa, x2 = 0.75	445.39
340 K, 3485.7 kPa, x2 = 0.499	467.47
340 K, 3510.1 kPa, x2 = 0.75	448.46
340 K, 3532.9 kPa, x2 = 0.25	488.26
340 K, 3969 kPa, x2 = 0.75	451.17
340 K, 4012.5 kPa, x2 = 0.499	470.04
340 K, 4015.7 kPa, x2 = 0.25	490.21
340 K, 4498.6 kPa, x2 = 0.75	454.09
340 K, 4503 kPa, x2 = 0.25	492.08
340 K, 4508.4 kPa, x2 = 0.499	472.34
340 K, 4963.1 kPa, x2 = 0.75	456.51
340 K, 4964.9 kPa, x2 = 0.25	493.81
340 K, 4990.6 kPa, x2 = 0.499	474.5
340 K, 5450.5 kPa, x2 = 0.499	476.5
340 K, 5511.1 kPa, x2 = 0.75	459.22
340 K, 5522.3 kPa, x2 = 0.25	495.84
340 K, 5960.4 kPa, x2 = 0.75	461.33
340 K, 5982 kPa, x2 = 0.499	478.68
340 K, 6022.3 kPa, x2 = 0.25	497.59
340 K, 6506.1 kPa, x2 = 0.75	463.79
340 K, 6513 kPa, x2 = 0.499	480.75
340 K, 6527.5 kPa, x2 = 0.25	499.31
340 K, 6963 kPa, x2 = 0.25	500.75
340 K, 7045.5 kPa, x2 = 0.499	482.76
340 K, 7081.1 kPa, x2 = 0.75	466.25
360 K, 2023.3 kPa, x2 = 0.25	441.34
360 K, 2495.4 kPa, x2 = 0.499	418.03
360 K, 2532.9 kPa, x2 = 0.25	445.56
360 K, 2996.3 kPa, x2 = 0.499	423.54
360 K, 3022.3 kPa, x2 = 0.25	449.26
360 K, 3496.3 kPa, x2 = 0.499	428.34
360 K, 3518.2 kPa, x2 = 0.75	399.53
360 K, 3519.8 kPa, x2 = 0.25	452.71
360 K, 3960 kPa, x2 = 0.75	405.21
360 K, 3971.4 kPa, x2 = 0.75	405.35
360 K, 3988.8 kPa, x2 = 0.499	432.58
360 K, 4022.3 kPa, x2 = 0.25	455.95
360 K, 4484.8 kPa, x2 = 0.75	411.08
360 K, 4488.6 kPa, x2 = 0.499	436.48
360 K, 4520.2 kPa, x2 = 0.25	458.95
360 K, 4923.7 kPa, x2 = 0.75	415.42
360 K, 4983.9 kPa, x2 = 0.25	461.58
360 K, 5000.3 kPa, x2 = 0.499	440.17
360 K, 5436.6 kPa, x2 = 0.499	443.06
360 K, 5456.3 kPa, x2 = 0.75	420.47
360 K, 5515.2 kPa, x2 = 0.25	464.45
360 K, 5932 kPa, x2 = 0.75	424.33
360 K, 5982.9 kPa, x2 = 0.25	466.86
360 K, 5992.3 kPa, x2 = 0.499	446.54
360 K, 6444.6 kPa, x2 = 0.25	469.09
360 K, 6487.4 kPa, x2 = 0.499	449.41
360 K, 6509.8 kPa, x2 = 0.75	428.41
360 K, 6932.1 kPa, x2 = 0.75	431.05
360 K, 6956.4 kPa, x2 = 0.25	471.48
360 K, 6977 kPa, x2 = 0.499	452.14
380 K, 2977.2 kPa, x2 = 0.25	394.6
380 K, 3495.5 kPa, x2 = 0.25	403.43
380 K, 3540.7 kPa, x2 = 0.499	358.66
380 K, 3969.5 kPa, x2 = 0.25	409.99
380 K, 4047.9 kPa, x2 = 0.499	373.76
380 K, 4453.9 kPa, x2 = 0.25	415.7
380 K, 4501.9 kPa, x2 = 0.499	383.09
380 K, 5016 kPa, x2 = 0.499	391.43
380 K, 5019.6 kPa, x2 = 0.25	421.52
380 K, 5488.5 kPa, x2 = 0.25	425.84
380 K, 5506.7 kPa, x2 = 0.499	398.06
380 K, 5943.1 kPa, x2 = 0.499	403.16
380 K, 5972.1 kPa, x2 = 0.25	429.89
380 K, 6422.5 kPa, x2 = 0.499	408.17
380 K, 6471.8 kPa, x2 = 0.25	433.74
380 K, 6885.8 kPa, x2 = 0.499	412.58
380 K, 7060.8 kPa, x2 = 0.25	437.93

mass density [kg/m3]
Conditions	300 K	320 K	340 K	360 K	380 K
x2 = 0.25	537.31	509.12	478.17	440.78	390.71
x2 = 0.499	522.96	491.75	457.03	416.83	346.9
x2 = 0.75	507.33	475.51	436.07	388.35	–
